Laboratory results as given in patent US5043332A, “Novel 11β-substituted -19-nor-steriods” (priority 1981, dated 1991).
Where two headings read alike, the source gives them in different places.

What was measured:
[1] = tested on: thymocytes of surrenalectomized rats; experiment: Antiglucocorticoidal activity, incorporation of tritiated uridine in thymocytes; type: cell-based; settings: for inhibition at 0.1 µM: 5 × 10^-8 M dexamethasone + test product 10^-7 M; for inhibition at 0.01 µM: 5 × 10^-8 M dexamethasone + test product 10^-8 M; for opposition to the effect of dexamethasone on tritiated uridine incorporation (in words): with 5×10^-8 M dexamethasone
[2] = target: T1, Progestogen receptor of the uterus of rabbits (Oryctolagus cuniculus, UniProt P06186); experiment: Progestogen receptor binding (displacement of tritiated product R); design: species or system rabbit
T1 construct: The uterus was removed, weighed and homogenized at 0° C; from tissue; host or cells: rabbit uterus, 105,000 g supernatant (estradiol-primed immature rabbits)
T1 sequence (P06186 1-930): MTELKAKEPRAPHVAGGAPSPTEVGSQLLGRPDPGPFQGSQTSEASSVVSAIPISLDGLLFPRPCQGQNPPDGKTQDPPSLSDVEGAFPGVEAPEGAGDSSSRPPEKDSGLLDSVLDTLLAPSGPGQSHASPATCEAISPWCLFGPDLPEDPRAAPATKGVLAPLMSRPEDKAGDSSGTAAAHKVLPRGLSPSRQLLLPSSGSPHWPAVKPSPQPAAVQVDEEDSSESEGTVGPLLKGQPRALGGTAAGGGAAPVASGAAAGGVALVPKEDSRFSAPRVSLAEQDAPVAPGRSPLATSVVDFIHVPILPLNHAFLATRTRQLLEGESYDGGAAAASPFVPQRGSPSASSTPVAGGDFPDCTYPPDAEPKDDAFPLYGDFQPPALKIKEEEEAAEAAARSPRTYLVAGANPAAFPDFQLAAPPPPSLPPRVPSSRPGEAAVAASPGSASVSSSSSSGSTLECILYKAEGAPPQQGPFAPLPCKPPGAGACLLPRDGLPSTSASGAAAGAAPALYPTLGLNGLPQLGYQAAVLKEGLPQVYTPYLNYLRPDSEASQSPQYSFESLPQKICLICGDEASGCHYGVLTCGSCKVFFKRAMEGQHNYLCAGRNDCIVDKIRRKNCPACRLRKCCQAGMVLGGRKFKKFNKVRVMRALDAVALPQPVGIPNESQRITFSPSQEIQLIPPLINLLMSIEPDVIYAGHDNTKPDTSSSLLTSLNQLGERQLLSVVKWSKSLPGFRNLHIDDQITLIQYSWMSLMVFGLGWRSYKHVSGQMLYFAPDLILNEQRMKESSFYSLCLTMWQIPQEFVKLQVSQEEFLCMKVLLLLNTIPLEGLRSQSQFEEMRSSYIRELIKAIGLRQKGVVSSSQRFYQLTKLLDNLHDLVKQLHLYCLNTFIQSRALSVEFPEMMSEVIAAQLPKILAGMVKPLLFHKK

[3] = target: T2, Estrogen receptor of uterus of mice (Mus musculus, UniProt P19785); experiment: Estrogen receptor binding (displacement of tritiated estradiol)
T2 construct: the uterus were removed and homogenized at 0° C; from tissue; host or cells: mouse uterus, 105,000 g supernatant (immature females 18 to 21 days old)
T2 sequence (P19785 1-599): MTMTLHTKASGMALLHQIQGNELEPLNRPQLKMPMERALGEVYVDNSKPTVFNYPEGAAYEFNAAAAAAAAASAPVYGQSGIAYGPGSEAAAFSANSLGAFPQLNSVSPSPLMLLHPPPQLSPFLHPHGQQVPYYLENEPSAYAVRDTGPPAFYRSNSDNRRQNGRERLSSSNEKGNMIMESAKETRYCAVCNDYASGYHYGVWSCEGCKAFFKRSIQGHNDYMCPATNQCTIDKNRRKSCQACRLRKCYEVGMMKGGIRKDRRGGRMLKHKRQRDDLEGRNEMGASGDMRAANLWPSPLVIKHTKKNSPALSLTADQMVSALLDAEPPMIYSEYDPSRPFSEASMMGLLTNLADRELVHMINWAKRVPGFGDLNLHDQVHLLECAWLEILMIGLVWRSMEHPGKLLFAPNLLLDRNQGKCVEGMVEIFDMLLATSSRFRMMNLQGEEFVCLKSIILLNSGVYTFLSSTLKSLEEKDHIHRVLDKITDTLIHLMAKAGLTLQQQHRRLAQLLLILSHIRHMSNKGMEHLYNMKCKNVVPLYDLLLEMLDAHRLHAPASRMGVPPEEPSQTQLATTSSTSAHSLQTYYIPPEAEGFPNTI
Method in brief: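 Uteri from immature female mice aged 18 to 21 days were homogenized at 0° C. in Tris-saccharose buffer (pH 7.4, 1 g tissue per 25 ml) and ultracentrifuged at 105,000 g for 90 minutes. Aliquots were incubated at 0° C. with a fixed concentration of tritiated estradiol and increasing concentrations (0 to 1000×10^-9 M) of cold estradiol or test compound. Bound tritiated estradiol was measured by carbon-dextran adsorption, and relative binding affinity (ARL) was derived from the concentrations giving 50% inhibition.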

[4] = Rattus norvegicus, Thymocyte, second table, read-out: % of inhibition of effect of Dexamethasone
[5] = second table, 5 × 10^-8 M dexamethasone + test product 10^-6 M
[6] = second table, incubation 2 H at 0° C.
[7] = second table, incubation 24 H at 0° C.
[8] = Rattus norvegicus, Thymocyte, read-out: % inhibition of effect of Dexamethasone

CN(C)c1ccc([C@H]2C[C@@]3(C)[C@@H](CC[C@@]3(O)C#Cc3ccccc3)[C@@H]3CCC4=CC(=O)CCC4=C32)cc1 [Example 29, 11β-[4-(N,N-dimethylamino)-phenyl]-21-phenyl-19-nor-17α-Δ^4,9-pregnadiene-20-yne-17β-ol-3-one]
inhibition at 0.1 µM [1, 4]: 57%
inhibition at 0.01 µM [1, 4]: 18%
% of inhibition of effect of Dexamethasone (symbol) [1, 5]: * (A dose of 10^-6 M inhibited totally the effect of dexamethasone)
opposition to the effect of dexamethasone on tritiated uridine incorporation (in words) [1]: opposed this effect
relative affinity of tieing (ARL), Progestogen [2, 6]: 41
relative affinity of tieing (ARL), Progestogen [2, 7]: 250
relative affinity of tieing (ARL), Estrogen [3, 6]: 0

CC#C[C@]1(O)CC[C@H]2[C@@H]3CCC4=CC(=O)C(C#N)(C#N)CC4=C3[C@@H](c3ccc(N(C)C)cc3)C[C@@]21C [Example 9, 2,2-dicyano-11β-(4-dimethylaminophenyl)-17α-(prop-1-ynyl)-Δ^4,9-estradiene-17β-ol-3-one]
inhibition at 1 µM ([1]; Rattus norvegicus, Thymocyte, 5 × 10^-8 M dexamethasone + test product 10^-6 M, read-out: % inhibition of effect of Dexamethasone): 2%
inhibition at 0.1 µM [1, 8]: 1%
inhibition at 0.01 µM [1, 8]: 3%
relative affinity of tieing (ARL), Progestogen ([2]; incubation 2 H at 0° C.): < 0,1
relative affinity of tieing (ARL), Progestogen ([2]; incubation 24 H at 0° C.): < 0,1
relative affinity of tieing (ARL), Estrogen ([3]; incubation 2 H at 0° C.): < 0,1
relative affinity of tieing (ARL), Estrogen ([3]; incubation 5 H (25° C.)): < 0,1

C=CC[C@]1(O)CC[C@H]2[C@@H]3CCC4=CC(=O)CCC4=C3[C@@H](c3ccc(N(C)C)cc3)C[C@@]21C [Example 37, 11β-[4-(N,N-dimethylamino)-phenyl]-17α-(prop-2-enyl)-Δ^4,9-estradien-17β-ol-3-one]
% of inhibition of effect of Dexamethasone (symbol) [1, 5]: * (A dose of 10^-6 M inhibited totally the effect of dexamethasone)
opposition to the effect of dexamethasone on tritiated uridine incorporation (in words) [1]: opposed this effect
affinity for progestogen receptors (in words) ([2]; conclusion): very remarkable affinity
relative affinity of tieing (ARL), Progestogen [2, 6]: 175
relative affinity of tieing (ARL), Progestogen [2, 7]: 843
relative affinity of tieing (ARL), Estrogen [3, 6]: 0
